# Experimental data: patent publication US11878973B2, “Bicyclic compounds and their uses” (NOVARTIS AG, priority 2021, dated 2024)
# Like-named read-outs stand apart in the source and are kept apart here.
# Tests used:
# SW48 cells = experiment: Proliferation assay SW48 (CellTiterGlo, 96 hours)
# Protocol: The WRN-knockdown insensitive colon carcinoma cell line DLD-1 (RRID: CVCL_0248) was obtained from the Korean Cell Line Bank (KCLB), and used to generate a derivative in which the endogenous WRN gene copies were knocked out by CRISPR-mediated editing using standard CRISPR methods. The resulting cell line, DLD1-WRN—KO, was used to assess potential off-target compound effects.
# All cells were maintained at 37° C. in a humidified 5% CO2 incubator.
# For data analysis, the assay background signal that was determined in wells containing medium, but no cells, was subtracted from all other data points prior to further calculations. The extent of growth inhibition and potential cell kill was assessed by comparing the ATP levels (measured using CellTiterGlo, Promega) in compound-treated cells with those present at the time of compound addition. […] 100%, 0% and −100% signify absence of growth inhibition, growth stasis, and complete cell kill, respectively. Compound concentrations leading to half-maximal growth inhibition (G150) and residual cell viability at the highest tested compound concentration (Data (cmax), expressed in percent) were routinely calculated. Data analysis can also be carried out using commercially available software designed to derive IC50 values using 4-parameter fits (e.g. GraphPad Prism, XL fit). The reported GI50 values are the geometrical means of at least 2 independent replicates.
# WRN helicase = WRN helicase (Homo sapiens (Human), UniProt Q14191); experiment: In vitro enzymatic activity assay on WRN helicase (DNA dependent ATPase assay, ADP-Glo); type: biochemical; conditions: geometric means of at least 2 determinations; read-out: WRN ATPase Activity (IC50)
# Source text: An ATPase assay was set up to measure the DNA dependent ATP hydrolysis activity of WRN helicase. This assay was used also to assess the inhibition properties of compounds of the invention on DNA dependent WRN ATPase activity.
# The core helicase motif of the WRN protein (aa N517-P1238) was produced for this assay (protein production as described above). […] The ADP-Glo assay kit (Promega, Madison, WI) allowing the quantification of ADP produced in ATP hydrolysis reactions was used for setting up this assay.
# Time course experiments were first performed in order to determine the best enzymatic assay conditions (including buffer conditions, reaction time and concentrations of protein, ATP and DNA substrates). A typical reaction consists of 10 nM WRN protein, 0.2 nM FLAP26, and 300 micromolar ATP in the following assay buffer: 30 mM Tris pH7.5, 2 mM MgCl2, 0.02% BSA, 50 mM NaCl, 0.1% pluronic F127 prepared in DNAse free water. To evaluate the inhibition properties of compounds of the invention, serial dilutions were prepared in DMSO (10 half log dilutions from a 10 mM DMSO solution). […] The reaction was started by addition of 2.5 microliters of FLAP26 at 0.4 nM and incubated for 30 minutes at room temperature. The reaction was stopped with the addition of 5 microliters of the first ADP-Glo reagent and incubated for one hour to remove the excess amount of ATP. Afterwards, 10 microliters of ATP detection reagent was added and incubated for an additional hour before reading. Luminescence output was recorded using Tecan 1000 reader, with 5 minutes delay before reading. Each concentration of compound was tested in duplicates in the assay plate.
# Following normalization of activity values for the wells to % inhibition (% inhibition=[(high control-sample)/(high control-low control)]×100), IC50 fitting was carried out from the duplicate determinations present on each plate according to [4]. Data analysis can also be carried out using commercially available software designed to derive IC50 values using 4-parameter fits (e.g. GraphPad Prism, XL fit). The reported IC50 values are the geometrical means of at least 2 independent replicates.
# DLD1-WRN-KO cells = experiment: Proliferation assay DLD1-WRN-KO (CellTiterGlo, 96 hours; off-target effects); conditions: read-out: Proliferation Assay DLD1-WRN-KO (GI50)
# [1] = Homo sapiens, SW48, read-out: Proliferation Assay SW48 (GI50)
# WRN helicase, sequence (Q14191 517-1238): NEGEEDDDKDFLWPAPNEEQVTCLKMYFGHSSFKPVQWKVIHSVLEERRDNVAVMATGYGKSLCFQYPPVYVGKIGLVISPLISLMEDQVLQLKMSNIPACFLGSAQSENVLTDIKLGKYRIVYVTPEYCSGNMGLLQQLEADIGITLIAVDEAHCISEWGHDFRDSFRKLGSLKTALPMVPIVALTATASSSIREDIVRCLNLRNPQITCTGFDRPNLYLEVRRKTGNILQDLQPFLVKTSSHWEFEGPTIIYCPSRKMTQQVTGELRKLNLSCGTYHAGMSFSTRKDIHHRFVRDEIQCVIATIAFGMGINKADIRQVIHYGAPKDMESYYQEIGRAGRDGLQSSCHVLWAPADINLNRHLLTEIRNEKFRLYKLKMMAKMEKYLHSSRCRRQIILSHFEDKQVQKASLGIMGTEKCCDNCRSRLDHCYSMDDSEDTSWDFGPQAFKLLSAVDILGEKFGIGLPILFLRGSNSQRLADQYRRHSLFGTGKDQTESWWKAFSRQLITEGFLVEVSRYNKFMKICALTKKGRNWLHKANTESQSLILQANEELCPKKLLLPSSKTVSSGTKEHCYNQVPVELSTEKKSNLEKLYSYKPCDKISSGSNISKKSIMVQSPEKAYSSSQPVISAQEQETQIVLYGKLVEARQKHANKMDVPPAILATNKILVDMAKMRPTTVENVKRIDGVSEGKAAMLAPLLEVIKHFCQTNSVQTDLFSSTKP
Compound,GI50 (SW48 cells; [1]),IC50 (WRN helicase),GI50 (DLD1-WRN-KO cells; Homo sapiens),"GI50 (SW48 cells; read-out: Proliferation Assay SW48 (GI50), SW48 cell line, geometric means of at least 2 determinations)","GI50 (DLD1-WRN-KO cells; DLD1-WRN-KO cell line, geometric means of at least 2 determinations)"
"CCc1c(N2CCN(C(=O)c3ncnc(C)c3O)CC2)c(=O)n2nc(C3=CCOCC3)nc2n1CC(=O)Nc1ccc(C(F)(F)F)cc1C [Example 57, 2-(2-(3,6-dihydro-2H-pyran-4-yl)-5-ethyl-6-(4-(5-hydroxy-6-methylpyrimidine-4-carbonyl)piperazin-1-yl)-7-oxo-[1,2,4]triazolo[1,5-a]pyrimidin-4(7H)-yl)-N-(2-methyl-4-(trifluoromethyl)phenyl)acetamide]",0.1 µM,0.1 µM,> 10 µM,–,–
"CCc1c(N2CCN(C(=O)c3nccc(F)c3O)CC2)c(=O)n2nc(C3=CCOCC3)nc2n1CC(=O)Nc1ccc(C(F)(F)F)nc1Cl [Example 48, N-(2-chloro-6-(trifluoromethyl)pyridin-3-yl)-2-(2-(3,6-dihydro-2H-pyran-4-yl)-5-ethyl-6-(4-(4-fluoro-3-hydroxypicolinoyl)piperazin-1-yl)-7-oxo-[1,2,4]triazolo[1,5-a]pyrimidin-4(7H)-yl)acetamide]",0.08 µM,0.07 µM,> 10 µM,–,–
"CCc1c(N2CCN(C(=O)c3ncccc3O)CC2)c(=O)n2nc(N3CCOCC3)nc2n1CC(=O)Nc1cc(F)c(C(F)(F)F)cc1C [Example 5, 2-(5-ethyl-6-(4-(3-hydroxypicolinoyl)piperazin-1-yl)-2-morpholino-7-oxo-[1,2,4]triazolo[1,5-a]pyrimidin-4(7H)-yl)-N-(5-fluoro-2-methyl-4-(trifluoromethyl)phenyl)acetamide]",0.12 µM,0.09 µM,> 10 µM,–,–
"CCc1c(N2CCN(C(=O)c3ncccc3O)CC2)c(=O)n2nc(C3=CCOCC3)nc2n1CC(=O)Nc1cc(F)c(C(F)(F)F)nc1C [Example 70, 2-(2-(3,6-dihydro-2H-pyran-4-yl)-5-ethyl-6-(4-(3-hydroxypicolinoyl)piperazin-1-yl)-7-oxo-[1,2,4]triazolo[1,5-a]pyrimidin-4(7H)-yl)-N-(5-fluoro-2-methyl-6-(trifluoromethyl)pyridin-3-yl)acetamide]",0.22 µM,0.1 µM,> 10 µM,–,–
"CCc1c(N2CCN(C(=O)c3ncc(Cl)cc3O)CC2)c(=O)n2nc(C3=CCOCC3)nc2n1CC(=O)Nc1ccc(C(F)(F)F)cc1C [Example 65, 2-(6-(4-(5-chloro-3-hydroxypicolinoyl)piperazin-1-yl)-2-(3,6-dihydro-2H-pyran-4-yl)-5-ethyl-7-oxo-[1,2,4]triazolo[1,5-a]pyrimidin-4(7H)-yl)-N-(2-methyl-4-(trifluoromethyl)phenyl)acetamide]",0.08 µM,0.05 µM,7.8 µM,–,–
"[2H]C([2H])(C(=O)Nc1ccc(C(F)(F)F)cc1Cl)n1c(CC)c(N2CCN(C(=O)c3ncnc(C)c3O)CC2)c(=O)n2nc(C3=CCOCC3)nc12 [Example 43, N-(2-chloro-4-(trifluoromethyl)phenyl)-2-(2-(3,6-dihydro-2H-pyran-4-yl)-5-ethyl-6-(4-(5-hydroxy-6-methylpyrimidine-4-carbonyl)piperazin-1-yl)-7-oxo-[1,2,4]triazolo[1,5-a]pyrimidin-4(7H)-yl)acetamide-2,2-d2]",0.05 µM,–,–,–,–
"Cc1c(N2CCN(C(=O)c3ncccc3O)CC2)c(=O)n2nc(C3=CCN(C(=O)OC(C)(C)C)CC3)nc2n1CC(=O)Nc1ccc(C(F)(F)F)cc1 [Example 126, tert-butyl 4-(6-(4-(3-hydroxypicolinoyl)piperazin-1-yl)-5-methyl-7-oxo-4-(2-oxo-2-((4-(trifluoromethyl)phenyl)amino)ethyl)-4,7-dihydro-[1,2,4]triazolo[1,5-a]pyrimidin-2-yl)-3,6-dihydropyridine-1(2H)-carboxylate]",–,0.13 µM,–,–,–

# Now from value to compound:
GI50 (SW48 cells; [1]),IC50 (WRN helicase),GI50 (DLD1-WRN-KO cells; Homo sapiens),"GI50 (SW48 cells; read-out: Proliferation Assay SW48 (GI50), SW48 cell line, geometric means of at least 2 determinations)","GI50 (DLD1-WRN-KO cells; DLD1-WRN-KO cell line, geometric means of at least 2 determinations)",Compound
0.18 µM,0.09 µM,> 10 µM,–,–,"CCc1c(N2CCN(C(=O)c3ncccc3O)CC2)c(=O)n2nc(C3=CCCOC3)nc2n1CC(=O)Nc1ccc(C(F)(F)F)cc1C [Example 114, 2-(2-(5,6-dihydro-2H-pyran-3-yl)-5-ethyl-6-(4-(3-hydroxypicolinoyl)piperazin-1-yl)-7-oxo-[1,2,4]triazolo[1,5-a]pyrimidin-4(7H)-yl)-N-(2-methyl-4-(trifluoromethyl)phenyl)acetamide]"
0.08 µM,0.06 µM,6.6 µM,–,–,"CCc1c(N2CCN(C(=O)c3ncccc3O)CC2)c(=O)n2nc(C3=CCOCC3)nc2n1CC(=O)Nc1cc(F)c(C(F)(F)F)cc1Cl [Example 116, N-(2-chloro-5-fluoro-4-(trifluoromethyl)phenyl)-2-(2-(3,6-dihydro-2H-pyran-4-yl)-5-ethyl-6-(4-(3-hydroxypicolinoyl)piperazin-1-yl)-7-oxo-[1,2,4]triazolo[1,5-a]pyrimidin-4(7H)-yl)acetamide]"
–,0.16 µM,–,0.05 µM,> 10 µM,"CCc1c(N2CCN(C(=O)c3ncccc3O)CC2)c(=O)n2nc(C3=CC[C@H](OC)CC3)nc2n1CC(=O)Nc1ccc(C(F)(F)F)nc1Cl (single isomer, unassigned) [Example 25a, ((R)—N-(2-chloro-6-(trifluoromethyl)pyridin-3-yl)-2-(5-ethyl-6-(4-(3-hydroxypicolinoyl)piperazin-1-yl)-2-(4-methoxycyclohex-1-en-1-yl)-7-oxo-[1,2,4]triazolo[1,5-a]pyrimidin-4(7H)-yl)acetamide) or ((S)—N-(2-chloro-6-(trifluoromethyl)pyridin-3-yl)-2-(5-ethyl-6-(4-(3-hydroxypicolinoyl)piperazin-1-yl)-2-(4-methoxycyclohex-1-en-1-yl)-7-oxo-[1,2,4]triazolo[1,5-a]pyrimidin-4(7H)-yl)acetamide)]"
0.28 µM,0.25 µM,> 10 µM,–,–,"CCc1c(N2CCN(C(=O)c3ncccc3O)CC2)c(=O)n2nc(C3=CCOCC3)nc2n1CC(=O)Nc1cnc(C(F)(F)F)cc1C [Example 34, 2-(2-(3,6-dihydro-2H-pyran-4-yl)-5-ethyl-6-(4-(3-hydroxypicolinoyl)piperazin-1-yl)-7-oxo-[1,2,4]triazolo[1,5-a]pyrimidin-4(7H)-yl)-N-(4-methyl-6-(trifluoromethyl)pyridin-3-yl)acetamide]"
0.26 µM,0.18 µM,> 10 µM,–,–,"CCc1c(N2CCN(C(=O)c3ncccc3O)CC2)c(=O)n2nc(N3CCCC3)nc2n1CC(=O)Nc1ccc(C(F)(F)F)nc1Cl [Example 18, N-(2-chloro-6-(trifluoromethyl)pyridin-3-yl)-2-(5-ethyl-6-(4-(3-hydroxypicolinoyl)piperazin-1-yl)-7-oxo-2-(pyrrolidin-1-yl)-[1,2,4]triazolo[1,5-a]pyrimidin-4(7H)-yl)acetamide]"
0.28 µM,0.18 µM,> 10 µM,–,–,"CCc1c(N2CCN(C(=O)c3ncccc3O)CC2)c(=O)n2nc(C3=CCOCC3)nc2n1CC(=O)Nc1cc(F)c(C(F)(F)F)nc1Cl [Example 99, N-(2-chloro-5-fluoro-6-(trifluoromethyl)pyridin-3-yl)-2-(2-(3,6-dihydro-2H-pyran-4-yl)-5-ethyl-6-(4-(3-hydroxypicolinoyl)piperazin-1-yl)-7-oxo-[1,2,4]triazolo[1,5-a]pyrimidin-4(7H)-yl)acetamide]"
0.06 µM,–,–,–,–,"[2H]C1([2H])N(C(=O)c2ncnc(C)c2O)C([2H])([2H])C([2H])([2H])N(c2c(CC)n(CC(=O)Nc3ccc(C(F)(F)F)cc3Cl)c3nc(C4=CCOCC4)nn3c2=O)C1([2H])[2H] [Example 133, N-(2-chloro-4-(trifluoromethyl)phenyl)-2-(2-(3,6-dihydro-2H-pyran-4-yl)-5-ethyl-6-(4-(5-hydroxy-6-methylpyrimidine-4-carbonyl)piperazin-1-yl-2,2,3,3,5,5,6,6-d8)-7-oxo-[1,2,4]triazolo[1,5-a]pyrimidin-4(7H)-yl)acetamide]"
0.05 µM,–,–,–,–,"CCc1c(N2CCN(C(=O)c3ncnc(C)c3O)CC2)c(=O)n2nc(C3=CCOCC3)nc2n1CC(=O)Nc1ccc(C(F)(F)F)cc1Cl [Example 42, N-(2-chloro-4-(trifluoromethyl)phenyl)-2-(2-(3,6-dihydro-2H-pyran-4-yl)-5-ethyl-6-(4-(5-hydroxy-6-methylpyrimidine-4-carbonyl)piperazin-1-yl)-7-oxo-[1,2,4]triazolo[1,5-a]pyrimidin-4(7H)-yl)acetamide]"
